Assay type in all cases: cell-based
For one assay, the target named is 5-HT1E (Homo sapiens, UniProt P28566). Description: 5-HT receptor activity panel (Table 3).
In the next assay the target is T1, 5-HT2B receptor (Homo sapiens, UniProt P41595).
T1 construct: expressed in transfected cells; host or cells: HEK293T
Description: 5-HT2B Gq dissociation BRET functional assay. For orientation: In BRET a luciferase serves as donor, and the signal depends on an acceptor being close.

A further assay concerns the target 5-HT5A (Homo sapiens, UniProt P47898). The experiment in a line: 5-HT receptor activity panel (Table 3).
The next assay addresses 5-HT7 (Homo sapiens, UniProt P34969). Description: 5-HT receptor activity panel (Table 3).
A further assay has as its target 5-HT1D (Homo sapiens, UniProt P28221). Description: 5-HT receptor activity panel (Table 3).
The target in another assay is T2, 5-HT1F (Homo sapiens, UniProt P30939).
T2 sequence (P30939 1-366): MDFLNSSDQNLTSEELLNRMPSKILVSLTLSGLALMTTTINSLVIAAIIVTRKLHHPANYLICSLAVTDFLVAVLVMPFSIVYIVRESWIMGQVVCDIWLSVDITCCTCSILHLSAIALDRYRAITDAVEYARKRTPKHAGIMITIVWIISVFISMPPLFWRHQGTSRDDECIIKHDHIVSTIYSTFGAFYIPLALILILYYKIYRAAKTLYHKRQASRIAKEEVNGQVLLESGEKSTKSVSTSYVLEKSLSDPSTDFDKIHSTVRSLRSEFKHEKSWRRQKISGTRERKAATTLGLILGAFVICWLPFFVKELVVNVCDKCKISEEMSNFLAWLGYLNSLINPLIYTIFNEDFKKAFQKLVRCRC
The experiment in a line: 5-HT receptor activity panel (Table 3). As to conditions: Table 3.

The target in the next assay is 5-HT4 (Homo sapiens, UniProt Q13639). The experiment in a line: 5-HT receptor activity panel (Table 3).
In a further assay the target is 5-HT1B (Homo sapiens, UniProt P28222). The experiment in a line: 5-HT receptor activity panel (Table 3).
A further assay addresses T3, 5-HT1A (Homo sapiens, UniProt P08908).
T3 sequence (P08908 1-422): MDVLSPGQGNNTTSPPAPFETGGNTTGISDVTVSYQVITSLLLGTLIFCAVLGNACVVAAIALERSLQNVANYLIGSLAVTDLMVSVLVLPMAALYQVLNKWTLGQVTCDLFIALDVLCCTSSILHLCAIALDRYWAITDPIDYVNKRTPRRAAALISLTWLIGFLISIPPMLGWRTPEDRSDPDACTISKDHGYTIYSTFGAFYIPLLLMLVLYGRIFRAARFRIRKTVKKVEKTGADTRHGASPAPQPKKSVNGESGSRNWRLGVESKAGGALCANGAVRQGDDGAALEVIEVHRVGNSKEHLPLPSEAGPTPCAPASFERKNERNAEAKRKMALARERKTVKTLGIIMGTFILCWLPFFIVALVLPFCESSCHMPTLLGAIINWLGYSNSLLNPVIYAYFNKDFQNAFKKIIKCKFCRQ
The experiment in a line: 5-HT receptor activity panel (Table 3).

The target in the next assay is 5-HT6 (Homo sapiens, UniProt P50406). The experiment in a line: 5-HT receptor activity panel (Table 3). As to conditions: Table 3.
The target in a further assay is T4, 5-HT2A receptor (Homo sapiens, UniProt P28223).
T4 construct: expressed in transfected cells; host or cells: HEK293T
Description: 5-HT2A Gq dissociation BRET functional assay.

[1] abbreviates: Table 2, normalized to % 5-HT stimulation.

Structures are written as SMILES.

This is an account of results in patent US20250074871A1, “PHENETHYLAMINES AND METHODS OF PREPARATION THEREOF” (priority 2022, published 2025).

The EC50 is the concentration giving half of the maximal effect.

5-HT1B, sequence (P28222 whole entry, species assumed): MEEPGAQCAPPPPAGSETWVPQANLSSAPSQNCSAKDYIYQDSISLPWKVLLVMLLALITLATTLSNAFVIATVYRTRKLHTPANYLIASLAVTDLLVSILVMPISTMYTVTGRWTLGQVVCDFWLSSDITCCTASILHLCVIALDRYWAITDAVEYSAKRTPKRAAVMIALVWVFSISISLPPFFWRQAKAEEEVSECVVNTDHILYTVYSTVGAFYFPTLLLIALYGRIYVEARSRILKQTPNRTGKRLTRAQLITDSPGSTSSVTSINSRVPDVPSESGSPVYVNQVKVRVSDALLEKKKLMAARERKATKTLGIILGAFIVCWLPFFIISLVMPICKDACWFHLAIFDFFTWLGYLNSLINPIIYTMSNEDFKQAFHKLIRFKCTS
5-HT1D, sequence (P28221 whole entry, species assumed): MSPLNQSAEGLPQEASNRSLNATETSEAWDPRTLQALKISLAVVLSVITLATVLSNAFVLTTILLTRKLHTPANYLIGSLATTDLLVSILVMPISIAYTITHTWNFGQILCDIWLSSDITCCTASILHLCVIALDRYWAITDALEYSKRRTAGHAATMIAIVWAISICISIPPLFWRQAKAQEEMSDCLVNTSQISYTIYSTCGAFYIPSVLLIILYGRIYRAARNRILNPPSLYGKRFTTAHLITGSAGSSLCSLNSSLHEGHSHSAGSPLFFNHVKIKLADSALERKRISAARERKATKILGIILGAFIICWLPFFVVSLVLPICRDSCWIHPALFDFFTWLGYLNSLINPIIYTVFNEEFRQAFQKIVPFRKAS
5-HT5A, sequence (P47898 whole entry, species assumed): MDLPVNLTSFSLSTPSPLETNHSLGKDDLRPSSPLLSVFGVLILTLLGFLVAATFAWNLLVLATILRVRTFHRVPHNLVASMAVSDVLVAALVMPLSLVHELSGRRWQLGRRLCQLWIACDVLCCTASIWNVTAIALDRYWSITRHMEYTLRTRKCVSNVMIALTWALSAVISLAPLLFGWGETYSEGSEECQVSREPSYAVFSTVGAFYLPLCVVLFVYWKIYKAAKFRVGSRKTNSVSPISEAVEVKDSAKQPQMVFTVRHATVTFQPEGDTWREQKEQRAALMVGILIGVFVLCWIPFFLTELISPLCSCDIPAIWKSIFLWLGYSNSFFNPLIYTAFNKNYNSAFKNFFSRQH
5-HT1E, sequence (P28566 whole entry, species assumed): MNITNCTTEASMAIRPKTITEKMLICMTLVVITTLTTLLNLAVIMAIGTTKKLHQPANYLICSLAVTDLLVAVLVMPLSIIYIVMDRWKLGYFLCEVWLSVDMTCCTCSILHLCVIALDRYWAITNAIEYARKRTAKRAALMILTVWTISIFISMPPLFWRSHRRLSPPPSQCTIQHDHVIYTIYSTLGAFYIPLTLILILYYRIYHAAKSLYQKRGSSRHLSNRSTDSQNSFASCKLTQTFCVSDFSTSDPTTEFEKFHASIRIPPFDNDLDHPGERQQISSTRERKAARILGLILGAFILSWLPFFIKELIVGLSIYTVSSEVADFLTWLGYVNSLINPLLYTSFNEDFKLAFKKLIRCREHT
5-HT4, sequence (Q13639 whole entry, species assumed): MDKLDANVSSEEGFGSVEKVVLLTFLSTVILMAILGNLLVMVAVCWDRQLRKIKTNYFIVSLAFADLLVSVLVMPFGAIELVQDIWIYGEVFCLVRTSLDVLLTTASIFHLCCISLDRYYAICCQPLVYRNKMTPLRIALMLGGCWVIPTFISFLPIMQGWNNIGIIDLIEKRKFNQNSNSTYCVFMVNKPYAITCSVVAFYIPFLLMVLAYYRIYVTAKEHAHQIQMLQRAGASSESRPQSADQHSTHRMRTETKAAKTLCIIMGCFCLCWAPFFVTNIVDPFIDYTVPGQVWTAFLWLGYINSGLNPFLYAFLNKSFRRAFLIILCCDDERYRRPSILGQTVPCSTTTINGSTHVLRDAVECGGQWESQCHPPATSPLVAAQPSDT
5-HT6, sequence (P50406 whole entry, species assumed): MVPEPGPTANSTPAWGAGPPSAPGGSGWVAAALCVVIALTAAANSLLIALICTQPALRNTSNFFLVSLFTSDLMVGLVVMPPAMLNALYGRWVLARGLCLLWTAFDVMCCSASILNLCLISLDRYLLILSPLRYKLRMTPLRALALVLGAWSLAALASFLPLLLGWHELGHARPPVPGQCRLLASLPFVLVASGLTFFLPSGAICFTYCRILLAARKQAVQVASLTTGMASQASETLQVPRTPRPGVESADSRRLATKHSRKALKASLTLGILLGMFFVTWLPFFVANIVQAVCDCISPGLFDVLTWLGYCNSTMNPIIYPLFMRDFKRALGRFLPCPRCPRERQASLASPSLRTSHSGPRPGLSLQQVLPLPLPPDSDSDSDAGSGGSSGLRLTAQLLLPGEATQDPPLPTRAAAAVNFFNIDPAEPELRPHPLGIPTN
T1 sequence (P41595 whole entry): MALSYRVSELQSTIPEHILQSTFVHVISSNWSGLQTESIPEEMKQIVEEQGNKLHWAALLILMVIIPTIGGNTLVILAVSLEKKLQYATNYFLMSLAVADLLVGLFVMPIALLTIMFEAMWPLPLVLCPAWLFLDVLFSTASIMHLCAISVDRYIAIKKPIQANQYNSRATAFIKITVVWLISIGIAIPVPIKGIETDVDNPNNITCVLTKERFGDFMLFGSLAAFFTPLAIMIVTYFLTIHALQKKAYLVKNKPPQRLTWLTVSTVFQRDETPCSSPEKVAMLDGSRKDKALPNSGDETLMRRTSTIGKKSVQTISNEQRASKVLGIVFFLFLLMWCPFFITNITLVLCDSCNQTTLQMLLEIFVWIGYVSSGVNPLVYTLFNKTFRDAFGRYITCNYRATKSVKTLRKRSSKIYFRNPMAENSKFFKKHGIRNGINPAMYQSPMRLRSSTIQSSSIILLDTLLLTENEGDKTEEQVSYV
T4 sequence (P28223 whole entry): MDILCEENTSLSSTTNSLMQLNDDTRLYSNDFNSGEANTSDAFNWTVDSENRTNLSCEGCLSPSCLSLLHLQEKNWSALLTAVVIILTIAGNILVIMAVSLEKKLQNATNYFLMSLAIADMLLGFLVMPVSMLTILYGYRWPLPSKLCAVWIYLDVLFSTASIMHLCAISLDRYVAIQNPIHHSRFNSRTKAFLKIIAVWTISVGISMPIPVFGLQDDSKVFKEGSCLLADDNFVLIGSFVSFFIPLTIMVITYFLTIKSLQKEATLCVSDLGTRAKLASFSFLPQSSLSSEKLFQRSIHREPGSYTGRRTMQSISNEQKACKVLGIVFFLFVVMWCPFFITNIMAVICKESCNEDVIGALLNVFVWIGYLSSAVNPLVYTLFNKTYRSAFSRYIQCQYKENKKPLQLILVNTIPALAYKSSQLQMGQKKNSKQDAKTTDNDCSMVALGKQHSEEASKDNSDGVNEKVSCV
5-HT7, sequence (P34969 whole entry, species assumed): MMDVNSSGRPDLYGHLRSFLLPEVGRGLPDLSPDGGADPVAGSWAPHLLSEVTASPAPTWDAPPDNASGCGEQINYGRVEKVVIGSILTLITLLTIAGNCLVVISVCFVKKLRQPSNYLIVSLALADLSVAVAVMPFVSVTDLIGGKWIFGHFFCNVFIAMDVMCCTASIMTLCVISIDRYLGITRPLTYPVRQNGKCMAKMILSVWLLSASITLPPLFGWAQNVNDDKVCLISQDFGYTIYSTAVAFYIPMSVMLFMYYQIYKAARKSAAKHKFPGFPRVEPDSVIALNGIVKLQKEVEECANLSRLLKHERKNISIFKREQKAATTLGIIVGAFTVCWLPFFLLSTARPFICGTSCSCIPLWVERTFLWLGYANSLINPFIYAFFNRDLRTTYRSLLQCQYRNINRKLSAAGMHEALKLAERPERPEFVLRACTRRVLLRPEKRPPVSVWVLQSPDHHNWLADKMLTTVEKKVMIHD

Take `CN(C)CCc1c[nH]c2cccc(O)c12` [psilocin, reference compound]: the EC50 on 5-HT1E amounted to 10.4 nM; on 5-HT5A, 349 nM; on 5-HT7, 525 nM; at 5-HT1D it was 2.2 nM; on 5-HT4, 563 nM; at 5-HT1B, 14.3 nM. Moreover, the figures for the concentration for a half-maximal effect (EC50) at 5-HT1A and at 5-HT6 (read-out: 5-HT6 EC50) were 46.9 nM and 182 nM, respectively. Besides, the “5-HT1E Eff, %” value at 5-HT1E (Table 3) is 90%. Further, the “5-HT2B BRET Eff %” value at 5-HT2B receptor (setting [1]) was 63%. Also, the “5-HT2B Eff, %” value on 5-HT2B receptor (Table 3 panel) was 32%. Moreover, the “5-HT5A Eff, %” value on 5-HT5A (Table 3) was found to be 48%. The “5-HT7 Eff, %” value at 5-HT7 (Table 3) worked out at 86%. Moreover, at 5-HT1D (Table 3), the “5-HT1D Eff, %” value came out at 102%. Further, the “5-HT1F Eff, %” value at 5-HT1F came out at 93%. Besides, at 5-HT4 (Table 3), the “5-HT4 Eff, %” value is reported as 81%. In addition, the “5-HT1B Eff, %” value on 5-HT1B (Table 3) was found to be 94%. Further, on 5-HT1A (Table 3), the “5-HT1A Eff, %” value is 93%. The “5-HT6 Eff, %” value on 5-HT6 is recorded as 74%. Further, the “5-HT2A BRET Eff %” value at 5-HT2A receptor (setting [1]) is given as 82%. Besides, the “5-HT2A Eff, %” value on 5-HT2A receptor (Table 3 panel) is 80%.
